Here are results for two compounds from patent US9796764B2, “Cyclotide genes in the fabaceae plant family” (The University of Queensland, priority 2011, dated 2017).

The structures appear in SMILES notation. Where a SMILES comes first, the peptide text is derived from it.

Data set [1] in a line: Heat denaturation, NMR spectra before and after heating. It is filed as physicochemical. Particulars: 95° C. for 5 minutes. An excerpt:
(B) Superposition of the 20 lowest energy structures of Cter M. Secondary structure of Cter M (C) and PA1b (E; PDB code 1P8B). The strands are shown as arrows and the helical turns as thickened ribbons. The disulfide bonds are shown in ball-and-stick format. The structure figures were generated using MOLMOL (Koradi, R., Billeter, M. & Wüthrich, K. (1996) J. Mol. Graph. 14, 29-32). Superimposition of Cter M and PA1b (D) showing cystine knot motif; disulfide bonds are indicated, and the aC are represented by spheres.
The structure of Cter M is extremely stable evidenced by its resistance to heat denaturation. […] An ensemble and ribbon representation of the three dimensional structure is shown in FIG. 14 along with a comparison with PA1b, the pea albumin whose precursor shares high sequence homology with the Cter gene.

The test system of data set [2] is chymotrypsin. Put plainly: Proteolysis by chymotrypsin (MS of leaf extract). It is filed as in vitro ADME. The conditions noted are these: native Cter M in leaf extract. From the text: (§1) The reduced and alkylated peptide, m/z 3407.6 (E, G, I) underwent proteolytic cleavage by trypsin (F) and chymotrypsin (H, J). As there is only a single tryptic site, the trypsin digestion product is observed at m/z 3424.6, whereas there were three chymotryptic sites resulting in the formation of major products at m/z 1450.7, 1511.7 and 1931.8 corresponding to KNGLPTCGETCL (SEQ ID NO:129), VPDCSCSWPICM (SEQ ID NO:130) and KNGLPTCGETCLGTCY (SEQ ID NO:131) respectively.

The nature of data set [3]: Binding to immobilized lipid vesicles (sensorgram). The conditions noted are these: PE membranes.
Data set [4] concerns Helicoverpa armigera larvae. The data set is described as follows: Insecticidal feeding trial. Particulars: against the cotton budworm Helicoverpa armigera. In kind it is in vivo. As for the experimental part:
H. armigera larvae were obtained from the Queensland Department of Employment, Economic Development & Innovation. A feeding trial was conducted for 48 h with larvae maintained at 25° C. throughout the experiment. Larvae were given diets consisting of wheat germ, yeast, and soy flour.

Data set [5] in a line: Haemolytic activity assay. In kind it is cell-based, human. Particulars: washed human red blood cells; % of maximum lysis (1% Triton X-100); read-out: haemolytic dose necessary to lyse 50% of the RBCs (HD50). As to the method: (§2) Serially diluted peptide solutions were incubated with washed human red blood cells. Following incubation, the supernatant was transferred before the UV absorbance was measured. The amount of haemolysis was calculated as the percentage of maximum lysis (1% Triton X-100 control) after adjusting for minimum lysis (PBS control). Synthetic melittin was used for comparison. The haemolytic dose necessary to lyse 50% of the RBCs (HD50) was calculated using the regression constant from the linear portion of the haemolytic titration curve (Graphpad Prism software).

The subject of data set [6] is human red blood cells. Put plainly: Haemolytic activity assay. In kind it is cell-based. Particulars: human red blood cells. As to the method: as §2
Data set [7] can be described thus: Solubility of the synthetic peptide. In kind it is physicochemical. As to the method: Synthesis Cter M was synthesized using solid phase peptide synthesis and folded using conditions earlier established for other cyclotides (Daly, N. L., et al., (1999) Biochemistry 38, 10606-10614) including the use of 50% isopropanol in buffer. […] The NMR spectra of the native and synthetic Cter M peptides were recorded and found to be identical. The three-dimensional structure of Cter M was calculated with 398 distance restraints and 11 angle restraints using a simulated annealing protocol in CNS.

Data set [8] relates to L3-stage larvae of Haemonchus contortus. The data set is described as follows: Larval migration (motility) assay. It is filed as cell-based. The conditions noted are these: against Haemonchus contortus. As to the method:
The effect of kB1 and Cter M on the motility of L3-stage larvae of Haemonchus contortus was assessed using a previously described method (Colgrave, et al., 2010, Antimicrob. Agents Ch. 54:2160-2166). The larvae were incubated in PBS containing a range of peptide concentrations for 24 h in the dark in a 96-well plate format. The motility of the worms was assessed wherein sinusoidal motion was indicative of health and loss of motility or the degree of motility was indicative of poor health. Nematodes that had been incubated with cyclotides were compared to control (no-peptide) wells.

Data set [9] addresses T1, trypsin (Bos taurus, UniProt P00760).
T1 construct: purchased Sigma T1426
T1 sequence (P00760 24-246): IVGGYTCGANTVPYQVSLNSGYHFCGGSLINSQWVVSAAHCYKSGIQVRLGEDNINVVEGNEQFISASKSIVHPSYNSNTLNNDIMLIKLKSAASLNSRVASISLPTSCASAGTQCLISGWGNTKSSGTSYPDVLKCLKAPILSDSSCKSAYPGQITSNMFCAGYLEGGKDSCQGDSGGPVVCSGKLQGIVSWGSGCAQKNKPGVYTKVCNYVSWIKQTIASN
Put plainly: Proteolysis by trypsin (MS of leaf extract). In kind it is in vitro ADME. The conditions noted are these: native Cter M in leaf extract.
From the text: as §1

Regarding `CC[C@H](C)[C@@H]1NC(=O)[C@@H]2CCCN2C(=O)[C@H](Cc2c[nH]c3ccccc23)NC(=O)[C@H](CO)NC(=O)[C@@H]2CSSC[C@@H]3NC(=O)[C@H]([C@@H](C)O)NC(=O)[C@H](CCC(=O)O)NC(=O)CNC(=O)[C@@H]4CSSC[C@H](NC(=O)[C@H](CC(=O)O)NC(=O)[C@@H]5CCCN5C(=O)[C@H](C(C)C)NC(=O)[C@H](Cc5ccc(O)cc5)NC(=O)[C@H](CSSC[C@H](NC1=O)C(=O)N[C@@H](CCSC)C(=O)N[C@@H](CCCCN)C(=O)N[C@@H](CC(N)=O)C(=O)NCC(=O)N[C@@H](CC(C)C)C(=O)N1CCC[C@H]1C(=O)N[C@@H]([C@@H](C)O)C(=O)N4)NC(=O)[C@H]([C@@H](C)O)NC(=O)CNC(=O)[C@H](CC(C)C)NC(=O)[C@H]([C@@H](C)O)NC3=O)C(=O)N[C@@H](CO)C(=O)N2` [Cter M] (HELM PEPTIDE1{C.G.E.T.C.T.L.G.T.C.Y.V.P.D.C.S.C.S.W.P.I.C.M.K.N.G.L.P.T}$PEPTIDE1,PEPTIDE1,1:R3-15:R3|PEPTIDE1,PEPTIDE1,5:R3-17:R3|PEPTIDE1,PEPTIDE1,10:R3-22:R3|PEPTIDE1,PEPTIDE1,1:R1-29:R2$$$V2.0), the “resistance to heat denaturation (change in NMR spectra)” value in data set [1] is “no changes were observed in the spectra”. The hydrolysis by chymotrypsin entry in data set [2] is listed as “no observed hydrolysis”. Also, the membrane binding result in data set [3] is “binds to PE membranes”. The insecticidal activity result in data set [4] is “insecticidal activity”. Besides, in data set [5], the HC50 was > 100 µM. Also, the “haemolytic activity” value in data set [6] is given as “mildly haemolytic”. For the same compound, the “solubility on addition of acetonitrile” value in data set [7] (addition of acetonitrile) is given as “greatly improved the solubility”. In data set [7] (water), the solubility in water entry is listed as “relatively low solubility in water”. For the same compound, the anthelmintic activity result in data set [8] is given as “anthelmintic activity”. For the same compound, the hydrolysis by trypsin entry in [9] was “no observed hydrolysis”.
Consider `CC(C)C[C@@H]1NC(=O)CNC(=O)[C@H](CC(N)=O)NC(=O)[C@H](CCCNC(=N)N)NC(=O)[C@H]([C@@H](C)O)NC(=O)[C@@H]2CSSC[C@@H]3NC(=O)[C@H]([C@@H](C)O)NC(=O)CNC(=O)CNC(=O)[C@H](C(C)C)NC(=O)[C@@H]4CSSC[C@H](NC(=O)[C@H]([C@@H](C)O)NC(=O)[C@H](CSSC[C@H](NC(=O)[C@H](C(C)C)NC(=O)[C@@H]5CCCN5C1=O)C(=O)NCC(=O)N[C@@H](CCC(=O)O)C(=O)N[C@@H]([C@@H](C)O)C(=O)N4)NC(=O)CNC(=O)[C@@H]1CCCN1C(=O)[C@H]([C@@H](C)O)NC(=O)[C@H](CC(N)=O)NC3=O)C(=O)N[C@@H](CO)C(=O)N[C@@H](Cc1c[nH]c3ccccc13)C(=O)N1CCC[C@H]1C(=O)N[C@@H](C(C)C)C(=O)N2` [kB1, kalata B1, reference compound], for which, in data set [5], the HC50 came to 7.8 µM.
